Where no end group is shown, it is not given here.
What was measured:
[1] = 200 μg/mL^−1; previous study; cited from earlier work
Description: In this study, we confirmed that PN5 has antimicrobial activities against Gram-negative and Gram-positive bacteria, including MDR E. coli. The ASEC strains that were clinically isolated from patients, mentioned in Table S3 in the supplemental material, produced ESBL, which induces resistance to β-lactam antibiotics, and New Delhi metallo-β-lactamase (NDM), which hydrolyzes a class of carbapenems. […] The four PN peptides (PN5, PN7, PN8, and PN10) purified from pine ne ...

P. aeruginosa ATCC 27853 = format: cell-based, Pseudomonas aeruginosa; conditions: microdilution, NB, 18 to 24 h, 37°C, three independent experiments
Experimental: Bacterial cells were cultured at 37°C in the appropriate culture media with shaking (180 rpm). Luria-Bertani broth (LB) (244620; BD Difco) was used for E. coli ATCC 25922, ASEC strains, and B. subtilis KCTC 2217. Nutrient broth (NB) (234000; BD Difco) was used for P. aeruginosa ATCC 27853, S. Typhimurium KCTC 1926, and A. baumannii KCTC 2508. Tryptic soy broth (TSB) (211825; BD Difco) was used for S. aureus ATCC 25923. Finally, brain heart infusion (BHI) (237500; BD Difco) was used for L. monocytogenes KCTC 3710. The antimicrobial activity of each peptide was determined using microdilution assays. To this end, 2-fold serial dilution series of each peptide (from 1 to 64 μM) were added to duplicate media with 10 mM sodium phosphate buffer (pH 7.4). Fifty microliters of the peptide and antibiotic solution was added to each well of a 96-well plate (32096, surface nontreatment; SPL Life Sciences). Then, 50 μL of 2 × 10^5 CFU mL^−1 of bacteria was added to each well, and the samples were incubated for 18 to 24 h without shaking at 37°C.

[2] = test system: E. coli ATCC 25922 biofilm; conditions: 5 × 10^5 CFU mL^−1, 0.2% glucose, 24 h, 37°C, crystal violet A595, three independent experiments
Experimental: Crystal violet staining was performed to determine the degree of biofilm formation by the E. coli 25922, S. aureus 25923, and ASEC strains. E. coli 25922 and S. aureus 25923 were cultured overnight in LB and TSB media with aeration at 180 rpm, respectively. Bacterial suspensions with 0.2% glucose (5 × 10^5 CFU mL^−1) were added to a 96-well plate (30096, surface treatment; SPL Life Sciences) and incubated for 24 h at 37°C. The supernatant was removed and fixed with 100% methanol. Next, 100 μL of crystal violet was added to the plate and incubated to dye the cells for 1 h, followed by rinsing the cells three times with distilled water (dH2O). After the crystal violet was dissolved with 95% ethanol, the mass of biofilm formation at 595 nm was measured using a Versa Max microplate reader (Molecular Devices). The inhibitory effect of PN5 against biofilm formed by E. coli 25922, S. aureus 25923, and three MDR E. coli strains (ASEC 2, 16, and 18) were determined. These cells were cultured overnight in LB and TSB media. Bacterial suspensions (5 × 10^5 CFU mL^−1) containing 0.2% glucose were added to 96-well plates and PN5 was serially diluted to a final concentration of 32 μM. The minimal biofilm inhibitory concentration (MBIC) was determined in three independent experiments. The percentage of biofilm formation was measured using the equation (A595 of treated biofilm/A595 of untreated biofilm) × 100. Similarly, the MDR ASEC 1 to 19 strains were cultured overnight in LB medium and seeded into 96-well plates with medium containing 0.2% glucose at 5 × 10^5 CFU mL^−1 of the bacterial suspension. Biofilm staining was performed as described above. SYTO 9 (6 μM) fluorescence in LIVE/DEAD BacLight was used to visualize the degree of biofilm formation. […] After 24 h, the culture supernatant of the peptide and bacteria was discarded, and the pellet was fixed with 100% methanol. A fluorescence mixture of SYTO 9 and propidium iodide was then added to each well, and the fluorescence was evaluated with an EVOS FL color imaging system (Thermo Fisher Scientific) with a 4× objective ([22]).

## FKFLARTGKFL-NH2 [PN5]
[1]
  cytotoxicity: less than 20%
P. aeruginosa ATCC 27853
  MIC: 4 µM
[2]
  MBIC50 (minimum inhibitory concentration resulting in at least 50% inhibition of biofilm formation): 16 (21.22) μM

From paper PMC9603901, “Therapeutic Potential of Antimicrobial Peptide PN5 against Multidrug-Resistant E. coli and Anti-Inflammatory Activity in a Septic Mouse Model” (Microbiology Spectrum, 2022)
